Measured values as given in patent EP0620225B1, “Cephalosporin derivatives” (Basilea Pharmaceutica AG, priority 1993, dated 1994).
In brackets after ≈: the same amount, converted by molar mass. Read-outs that look alike come from different tables or passages of the source.

Tests used:
E.coli 25922 = assay: Antibacterial spectrum (MIC), agar dilution; assay type: cell-based
Experimental: (§1) In vitro activity was determined by minimum inhibitory concentration in a microorganism spectum by the agar dilution method in Mueller Hinton agar.

C.freundii 902 = assay: Antibacterial spectrum (MIC), agar dilution; assay type: cell-based
Experimental: as §1

S.pyogenes B15 = assay: Antibacterial spectrum (MIC), agar dilution; assay type: cell-based
Experimental: as §1

X.maltophilia 1AC739 = assay: Antibacterial spectrum (MIC), agar dilution; assay type: cell-based
Experimental: as §1

C.difficile ZH1 = assay: Antibacterial spectrum (MIC), agar dilution; assay type: cell-based
Experimental: as §1

Acinetobacter sp.51-156 = assay: Antibacterial spectrum (MIC), agar dilution; assay type: cell-based
Experimental: as §1

P.mirabilis 2117 = assay: Antibacterial spectrum (MIC), agar dilution; assay type: cell-based
Experimental: as §1

K.pneumoniae 418 = assay: Antibacterial spectrum (MIC), agar dilution; assay type: cell-based
Experimental: as §1

H.influenzae 1 = assay: Antibacterial spectrum (MIC), agar dilution; assay type: cell-based
Experimental: as §1

E.cloacae 908R = assay: Antibacterial spectrum (MIC), agar dilution; assay type: cell-based
Experimental: as §1

L.monocytogenes BK23 = assay: Antibacterial spectrum (MIC), agar dilution; assay type: cell-based
Experimental: as §1

S.pneumoniae Q19 = assay: Antibacterial spectrum (MIC), agar dilution; assay type: cell-based
Experimental: as §1

P.vulgaris 1028 = assay: Antibacterial spectrum (MIC), agar dilution; assay type: cell-based
Experimental: as §1

E.cloacae 908SSi = assay: Antibacterial spectrum (MIC), agar dilution; assay type: cell-based
Experimental: as §1

S.aureus 6538 = assay: Antibacterial spectrum (MIC), agar dilution; assay type: cell-based
Experimental: as §1

P.aeruginosa 27853 = assay: Antibacterial spectrum (MIC), agar dilution; assay type: cell-based
Experimental: as §1

B.fragilis ATCC25285 = assay: Antibacterial spectrum (MIC), agar dilution; assay type: cell-based
Experimental: as §1

C.freundii 43 = assay: Antibacterial spectrum (MIC), agar dilution; assay type: cell-based
Experimental: as §1

S.marcescens 69438 = assay: Antibacterial spectrum (MIC), agar dilution; assay type: cell-based
Experimental: as §1

S.agalactiae QK44 = assay: Antibacterial spectrum (MIC), agar dilution; assay type: cell-based
Experimental: as §1

M.morganii 6H-137 = assay: Antibacterial spectrum (MIC), agar dilution; assay type: cell-based
Experimental: as §1

N.meningitidis 69480 = assay: Antibacterial spectrum (MIC), agar dilution; assay type: cell-based
Experimental: as §1

S.viridans group 016 = assay: Antibacterial spectrum (MIC), agar dilution; assay type: cell-based
Experimental: as §1

P.asaccharolyticus 29743 = assay: Antibacterial spectrum (MIC), agar dilution; assay type: cell-based
Experimental: as §1

M.catarrhalis RA21 = assay: Antibacterial spectrum (MIC), agar dilution; assay type: cell-based
Experimental: as §1

E.faecalis 6 = assay: Antibacterial spectrum (MIC), agar dilution; assay type: cell-based
Experimental: as §1

S.aureus 734 MRSA = assay: Antibacterial spectrum (MIC), agar dilution; assay type: cell-based
Experimental: as §1

E.faecalis [1] = assay: In vitro activity against selected species (MIC50, MIC90, range); assay type: cell-based; details: Enterococcus faecalis, medium IsoB
S.aureus MSSA = assay: as above; assay type: cell-based; details: Staphylococcus aureus, medium MHB (Mueller Hinton Broth)
S.pneumoniae PEN-R = assay: as above; assay type: cell-based; details: Streptococcus pneumoniae; for MIC: MIC range
M.catarrhalis = assay: as above; assay type: cell-based; details: Moraxella catarrhalis, medium IsoB
Escherichia coli 25922 = assay: Efficacy against systemic infections (septicemia) in mice; assay type: in vivo; details: 96 h, survival day 4
Experimental: (§2) Septicemia was induced in outbred Swiss albino mice (Jbm MoRo [specific pathogen free]; weight 16 to 20 g, Biomedical Research Laboratories, Füllinsdorf, Switzerland). Mice were infected by intraperitoneal injection of diluted overnight cultures of the test organisms. Bacterial challenge doses were 4-10 times the number of organisms required to kill 50% of untreated animals within 48 h. The test compounds were administered p.o. or s.c. 1 and 3 h after the bacterial challenge. To treat the infection with Pseudomonas aeruginosa BA an additional dose was given 5 h after challenge. Control and treatment groups at each dose were composed of five mice each. The 50% effective dose (ED50, in milligrams per kilogram) was calculated by probit analysis as described by Finney (Finney, D.J. 1978, Statistical method in biological assay, 3rd ed. Charles Griffin & Co., Ltd., London), from the survival rates on day 4 after infection.

S.aureus Smith = assay: as above; assay type: in vivo; details: Staphylococcus aureus, 96 h, sc 1 and 3 h after challenge, survival day 4
Experimental: as §2

S.aureus MRSA = assay: In vitro activity against selected species (MIC50, MIC90, range); assay type: cell-based; details: Staphylococcus aureus, medium MHA (Mueller Hinton Agar) +NaCl
Experimental: as §1

E.faecalis [2] = assay: as above; assay type: cell-based; details: Enterococcus faecalis, medium MHA
Experimental: as §1

E.faecium = assay: In vitro activity against selected species (MIC50, range); assay type: cell-based; details: Enterococcus faecium, medium MHA
Experimental: as §1

S.viridans group = assay: In vitro activity against selected species (MIC50, MIC90, range); assay type: cell-based
[3] = Citrobacter freundii, read-out: MIC
[4] = Enterobacter cloacae, read-out: MIC
[5] = Staphylococcus aureus, read-out: MIC
[6] = medium IsoB (Isosensitest Broth)

For `C=CC1=C(C(=O)O)N2C(=O)[C@@H](NC(=O)/C(=N\O)c3csc(N)n3)[C@H]2SC1` [Cefdinir, reference compound], the MIC (E.coli 25922; Escherichia coli, read-out: MIC) was 0.25 µg/mL (≈ 0.632 µM), the MIC (C.freundii 902; [3]) was 16 µg/mL (≈ 40.5 µM) and the MIC (S.pyogenes B15; Streptococcus pyogenes, read-out: MIC) was at most 0.06 µg/mL. For the same compound, the MIC (X.maltophilia 1AC739; Stenotrophomonas maltophilia, read-out: MIC) was over 32 µg/mL, the MIC (C.difficile ZH1; Clostridioides difficile, read-out: MIC) was 32 µg/mL (≈ 80.9 µM) and the MIC (Acinetobacter sp.51-156; SP.51156, read-out: MIC) was over 32 µg/mL. It also gave an MIC (P.mirabilis 2117; Proteus mirabilis, read-out: MIC) of 0.12 µg/mL (≈ 0.303 µM), an MIC (K.pneumoniae 418; Klebsiella pneumoniae, read-out: MIC) of 0.12 µg/mL (≈ 0.303 µM) and an MIC (H.influenzae 1; Haemophilus influenzae, read-out: MIC) of 0.5 µg/mL (≈ 1.26 µM). It also gave an MIC (E.cloacae 908R; [4]) of over 32 µg/mL, an MIC (L.monocytogenes BK23; Listeria monocytogenes, read-out: MIC) of 16 µg/mL (≈ 40.5 µM) and an MIC (S.pneumoniae Q19; Streptococcus pneumoniae, read-out: MIC) of 0.25 µg/mL (≈ 0.632 µM). It also gave an MIC (P.vulgaris 1028; Proteus vulgaris, read-out: MIC) of 1 µg/mL (≈ 2.53 µM), an MIC (E.cloacae 908SSi; [4]) of 32 µg/mL (≈ 80.9 µM) and an MIC (S.aureus 6538; [5]) of 0.5 µg/mL (≈ 1.26 µM). The MIC (P.aeruginosa 27853; Pseudomonas aeruginosa, read-out: MIC) was over 32 µg/mL, the MIC (B.fragilis ATCC25285; Bacteroides fragilis, read-out: MIC) was 32 µg/mL (≈ 80.9 µM) and the MIC (C.freundii 43; [3]) was over 32 µg/mL. The MIC (S.marcescens 69438; Serratia marcescens, read-out: MIC) was 16 µg/mL (≈ 40.5 µM), the MIC (S.agalactiae QK44; Streptococcus agalactiae, read-out: MIC) was 0.25 µg/mL (≈ 0.632 µM) and the MIC (M.morganii 6H-137; Morganella morganii, 6H137, read-out: MIC) was 8 µg/mL (≈ 20.2 µM). It also gave an MIC (N.meningitidis 69480; Neisseria meningitidis, read-out: MIC) of at most 0.06 µg/mL, an MIC (S.viridans group 016; Streptococcus viridans, read-out: MIC) of 2 µg/mL (≈ 5.06 µM) and an MIC (P.asaccharolyticus 29743; Peptoniphilus asaccharolyticus, read-out: MIC) of at most 0.12 µg/mL. It also gave an MIC (M.catarrhalis RA21; Moraxella catarrhalis, read-out: MIC) of 1 µg/mL (≈ 2.53 µM), an MIC (E.faecalis 6; Enterococcus faecalis, read-out: MIC) of 8 µg/mL (≈ 20.2 µM) and an MIC (S.aureus 734 MRSA; [5]) of over 32 µg/mL. For the same compound, the MIC (E.faecalis [1]; MIC range) was 1 to 64 µg/mL (≈ 2.53 to 162 µM), the MIC50 (E.faecalis [1]) was 8 µg/mL (≈ 20.2 µM) and the MIC90 (E.faecalis [1]) was 32 µg/mL (≈ 80.9 µM). It also gave an MIC (S.aureus MSSA; MIC range) of 0.5 to 4 µg/mL (≈ 1.26 to 10.1 µM), an MIC50 (S.aureus MSSA) of 1 µg/mL (≈ 2.53 µM) and an MIC90 (S.aureus MSSA) of 2 µg/mL (≈ 5.06 µM). It also gave an MIC (S.pneumoniae PEN-R; [6]) of 0.1 to 8 µg/mL (≈ 0.253 to 20.2 µM), an MIC (S.pneumoniae PEN-R; medium IsoB + 20% serum) of 0.1 to 8 µg/mL and an MIC50 (S.pneumoniae PEN-R; [6]) of 2 µg/mL (≈ 5.06 µM). For the same compound, the MIC90 (S.pneumoniae PEN-R; [6]) was 4 µg/mL (≈ 10.1 µM), the MIC50 (S.pneumoniae PEN-R; medium IsoB + 20% serum) was 4 µg/mL and the MIC (M.catarrhalis; MIC range) was 0.25 to 0.5 µg/mL (≈ 0.632 to 1.26 µM). The MIC50 (M.catarrhalis) was 0.25 µg/mL (≈ 0.632 µM), the MIC90 (M.catarrhalis) was 0.5 µg/mL (≈ 1.26 µM) and the ED50 (Escherichia coli 25922; Escherichia coli 25922, po (orally) 1 and 3 h after challenge) was 1.8 mg/kg. The ED50 (Escherichia coli 25922; Escherichia coli, E.coli 25922, sc 1 and 3 h after challenge) was under 1 mg/kg, the ED50 (S.aureus Smith) was under 1 mg/kg and the MIC50 (S.aureus MRSA) was over 32 µg/mL. The MIC90 (S.aureus MRSA) was over 32 µg/mL, the MIC (E.faecalis [2]; MIC range) was 4 to 32 µg/mL (≈ 10.1 to 80.9 µM) and the MIC50 (E.faecalis [2]) was 8 µg/mL (≈ 20.2 µM). It also gave an MIC90 (E.faecalis [2]) of 16 µg/mL (≈ 40.5 µM), an MIC50 (E.faecium) of 16 µg/mL (≈ 40.5 µM) and a Range (S.viridans group; MIC range, medium IsoB) of under 0.12 to 128 µg/mL. It also gave an MIC50 (S.viridans group; Streptococcus viridans) of 8 µg/mL (≈ 20.2 µM) and an MIC90 (S.viridans group; Streptococcus viridans) of 16 µg/mL (≈ 40.5 µM).

With `Nc1nc(/C(=N/O)C(=O)N[C@@H]2C(=O)N3C(C(=O)O)=C(/C=C4\CCN(c5cccnc5)C4=O)CS[C@H]23)cs1` [K, [6R-[3(E),6α,7β(Z)]]-7-[[(2-Amino-4-thiazolyl)(hydroxyimino)acetyl]-amino]-8-oxo-3-[[2-oxo-1-(3-pyridinyl)-3-pyrrolidinylidene]methyl]-5-thia-1-azabicyclo[4.2.0]oct-2-ene-2-carboxylic acid] the MIC (E.coli 25922) was at most 0.12 µg/mL, the MIC (C.freundii 902) was at most 0.12 µg/mL and the MIC (S.pyogenes B15) was at most 0.06 µg/mL. For the same compound, the MIC (X.maltophilia 1AC739) was over 32 µg/mL, the MIC (C.difficile ZH1) was 16 µg/mL (≈ 29.5 µM) and the MIC (Acinetobacter sp.51-156) was 32 µg/mL (≈ 59.1 µM). It also gave an MIC (P.mirabilis 2117) of at most 0.12 µg/mL, an MIC (K.pneumoniae 418) of at most 0.12 µg/mL and an MIC (H.influenzae 1) of 0.25 µg/mL (≈ 0.462 µM). It also gave an MIC (E.cloacae 908R) of 4 µg/mL (≈ 7.39 µM), an MIC (L.monocytogenes BK23) of 8 µg/mL (≈ 14.8 µM) and an MIC (S.pneumoniae Q19) of 0.12 µg/mL (≈ 0.222 µM). For the same compound, the MIC (P.vulgaris 1028) was 4 µg/mL (≈ 7.39 µM), the MIC (E.cloacae 908SSi) was at most 0.12 µg/mL and the MIC (S.aureus 6538) was 1 µg/mL (≈ 1.85 µM). It also gave an MIC (P.aeruginosa 27853) of 16 µg/mL (≈ 29.5 µM), an MIC (B.fragilis ATCC25285) of 4 µg/mL (≈ 7.39 µM) and an MIC (C.freundii 43) of 2 µg/mL (≈ 3.69 µM). It also gave an MIC (S.marcescens 69438) of 0.5 µg/mL (≈ 0.923 µM), an MIC (S.agalactiae QK44) of 0.5 µg/mL (≈ 0.923 µM) and an MIC (M.morganii 6H-137) of at most 0.12 µg/mL. It also gave an MIC (N.meningitidis 69480) of at most 0.06 µg/mL, an MIC (S.viridans group 016) of 1 µg/mL (≈ 1.85 µM) and an MIC (P.asaccharolyticus 29743) of at most 0.25 µg/mL. The MIC (M.catarrhalis RA21) was over 16 µg/mL, the MIC (E.faecalis 6) was 1 µg/mL (≈ 1.85 µM) and the MIC (S.aureus 734 MRSA) was 8 µg/mL (≈ 14.8 µM).
